# Experimental data from PMC4585962, “A peptide factor secreted by Staphylococcus pseudintermedius exhibits properties of both bacteriocins and virulence factors” (Scientific Reports, 2015).
# No end group written: not given here. *: point of attachment. For = O=C*
# Key:
# [1] = system: B. subtilis 1A751 (pALCP2G); test: GFP release assay; format: cell-based, Bacillus subtilis; details: 2 × 10^6 CFU in PBS, 1 h 37 °C, 0.23 to 15 μM BacSp222, fluorescence of supernatant 480/510 nm
# Experimental: The bacteria transformed with GFP-encoding plasmids (pCN68[59] for S. aureus RN4220; pALCP2G[60] for B. subtilis 1A751[61] and E. coli DH5α) were grown overnight in TSB supplemented with appropriate antibiotics, washed twice and finally suspended in PBS. Fifty microliters of the suspensions containing 2 × 10^6 CFU of bacteria were then incubated for 1 h at 37 °C with serial dilutions of BacSp222 at concentrations ranging from 0.23 to 15 μM. Then, the bacteria were spun down, and the fluorescence in the supernatant was determined (Synergy H1 microplate reader, BioTek, 480/510 nm excitation/emission wavelengths). As the controls for 100% GFP release, S. aureus and B. subtilis were lysed using lysostaphin and chicken egg white lysozyme (Sigma), respectively, whereas the E. coli cells were disrupted by ultrasonication.
# [2] = molecular target: T1, human neutrophil elastase (Homo sapiens, UniProt P08246); test: Susceptibility to proteolysis, residual bactericidal activity; format: in vitro ADME; details: 30 μM peptide, 100 mM Tris-HCl pH 8.0, enzyme:peptide 1:50 or 1:10 (w/w), 3 hours, 37 °C; residual activity by radial diffusion assay on B. subtilis; triplicate
# T1 construct: purchased Biocentrum
# Experimental: (§1) The bactericidal activity of BacSp222 was also determined using the radial diffusion assay. In TSB agar (1%, w/v) containing a 200× diluted overnight culture of Bacillus subtilis ATCC 6633, wells of 2.4-mm diameter were created by drilling out the agar and filling the hole with 10 μl of the BacSp222 preparation for testing. Following overnight incubation at 37 °C, the bactericidal activity was measured as the area of the inhibition zones.
# (§2) The temperature stability of BacSp222 (30 μM final concentration) was determined in PBS. The solution was incubated for 1 or 3 h at 72 °C (typical temperature of pasteurization) or at 100 °C. Independently, a solution of bacteriocin was also subjected to a full cycle of autoclaving (20 min at 121 °C). The susceptibility of BacSp222 to proteolysis was verified using S. aureus staphopain C and V8 peptidase, human neutrophil elastase, human cathepsin G (Biocentrum), bovine TPCK-treated trypsin, pepsin from porcine gastric mucosa (Sigma), and proteinase K (A&A Biotechnology). The dried samples of BacSp222 were dissolved to a final concentration of 30 μM in the following buffers: 100 mM Tris-HCl pH 8.0 containing 5 mM CaCl2 (for trypsin and proteinase K), 100 mM Tris-HCl pH 7.5 containing 5 mM cysteine hydrochloride and 5 mM EDTA (for staphopain C), 100 mM Tris-HCl pH 8.0 (for elastase), 100 mM Tris-HCl pH 7.5 containing 500 mM NaCl (for cathepsin G), 100 mM sodium phosphate pH 7.8 (for V8 peptidase), and 100 mM ammonium acetate pH 4.0 (for pepsin). The peptidases were added at 1:50 or 1:10 (enzyme:BacSp222) ratios by weight, and the mixtures were incubated for 1 or 3 h at 37 °C. The residual activity was determined with the radial diffusion assay using Bacillus subtilis as an indicator strain. All of the above experiments were performed in triplicate.
# [3] = molecular target: T2, pepsin from porcine gastric mucosa (Sus scrofa, UniProt P00791); test: as above; format: in vitro ADME; details: 30 μM peptide, 100 mM ammonium acetate pH 4.0, enzyme:peptide 1:50 or 1:10 (w/w), 3 hours, 37 °C; residual activity by radial diffusion assay on B. subtilis; triplicate
# T2 construct: purchased Sigma; host or cells: porcine gastric mucosa
# Experimental: as §1, §2
# proteinase K = molecular target: T3, proteinase K (Parengyodontium album, UniProt P06873); test: as above; format: in vitro ADME; details: 30 μM peptide, 100 mM Tris-HCl pH 8.0 with 5 mM CaCl2, enzyme:peptide 1:50 or 1:10 (w/w), 3 hours, 37 °C; residual activity by radial diffusion assay on B. subtilis; triplicate
# T3 construct: purchased A&A Biotechnology
# Experimental: as §1, §2
# [4] = molecular target: T4, bovine TPCK-treated trypsin (Bos taurus, UniProt P00760); test: as above; format: in vitro ADME; details: 30 μM peptide, 100 mM Tris-HCl pH 8.0 with 5 mM CaCl2, enzyme:peptide 1:50 or 1:10 (w/w), 3 hours, 37 °C; residual activity by radial diffusion assay on B. subtilis; triplicate
# T4 construct: purchased Sigma
# Experimental: as §1, §2
# human cathepsin G = molecular target: T5, human cathepsin G (Homo sapiens, UniProt P08311); test: as above; format: in vitro ADME; details: 30 μM peptide, 100 mM Tris-HCl pH 7.5 with 500 mM NaCl, enzyme:peptide 1:50 or 1:10 (w/w), 3 hours, 37 °C; residual activity by radial diffusion assay on B. subtilis; triplicate
# T5 construct: purchased Biocentrum
# Experimental: as §1, §2
# T1 sequence (P08246 30-267): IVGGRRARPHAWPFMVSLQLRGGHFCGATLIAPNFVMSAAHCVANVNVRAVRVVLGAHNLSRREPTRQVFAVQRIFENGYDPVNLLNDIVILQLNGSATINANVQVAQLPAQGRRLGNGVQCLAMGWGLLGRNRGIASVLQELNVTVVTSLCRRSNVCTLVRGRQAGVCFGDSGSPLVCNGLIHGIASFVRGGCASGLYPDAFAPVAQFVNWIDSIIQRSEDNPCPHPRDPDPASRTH
# T5 sequence (P08311 21-255): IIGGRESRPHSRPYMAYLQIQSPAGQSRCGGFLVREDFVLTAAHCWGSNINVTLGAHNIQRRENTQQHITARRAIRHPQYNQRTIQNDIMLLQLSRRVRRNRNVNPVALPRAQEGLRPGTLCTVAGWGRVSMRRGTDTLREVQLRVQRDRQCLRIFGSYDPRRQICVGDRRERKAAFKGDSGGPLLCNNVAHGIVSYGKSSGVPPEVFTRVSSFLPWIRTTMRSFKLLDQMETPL
# T3 sequence (P06873 106-384): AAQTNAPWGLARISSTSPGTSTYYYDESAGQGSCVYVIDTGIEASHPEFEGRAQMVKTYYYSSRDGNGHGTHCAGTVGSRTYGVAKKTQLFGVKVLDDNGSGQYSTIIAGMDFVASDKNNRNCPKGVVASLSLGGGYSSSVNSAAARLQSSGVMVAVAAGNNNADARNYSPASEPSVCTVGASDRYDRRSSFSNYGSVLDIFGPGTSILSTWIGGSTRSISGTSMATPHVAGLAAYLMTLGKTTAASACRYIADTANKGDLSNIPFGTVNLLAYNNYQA
# T4 sequence (P00760 24-246): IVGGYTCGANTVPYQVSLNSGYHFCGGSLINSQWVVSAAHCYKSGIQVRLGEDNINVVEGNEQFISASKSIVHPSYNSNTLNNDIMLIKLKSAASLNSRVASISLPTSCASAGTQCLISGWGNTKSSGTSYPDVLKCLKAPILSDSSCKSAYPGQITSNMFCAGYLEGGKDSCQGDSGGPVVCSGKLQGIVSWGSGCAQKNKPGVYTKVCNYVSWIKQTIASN
# T2 sequence (P00791 60-385): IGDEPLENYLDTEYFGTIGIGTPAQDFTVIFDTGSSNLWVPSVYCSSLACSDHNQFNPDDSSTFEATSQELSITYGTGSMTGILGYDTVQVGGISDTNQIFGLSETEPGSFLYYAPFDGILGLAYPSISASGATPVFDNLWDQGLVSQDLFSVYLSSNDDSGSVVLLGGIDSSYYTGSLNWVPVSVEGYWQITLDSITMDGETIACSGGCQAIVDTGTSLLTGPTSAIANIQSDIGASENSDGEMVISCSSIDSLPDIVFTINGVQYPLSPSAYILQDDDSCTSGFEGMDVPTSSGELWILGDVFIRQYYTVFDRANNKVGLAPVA
substance,measurement,setting,value
For-MAGLLRFLLSKGRALYNWAKSHVGKVWEWLKSGATYEQIKEWIENALGWR [BacSp222],leakage of GFP from recombinant cells,[1],dose-dependent leakage of GFP was observed
same,activity of BacSp222 after incubation with the enzyme,[2],not significantly reduced
same,activity of BacSp222 after incubation with the enzyme,[3],not significantly reduced
same,activity of BacSp222 after incubation with the enzyme,proteinase K,not significantly reduced
same,activity of BacSp222 after incubation with the enzyme,[4],not significantly reduced
same,activity of BacSp222 after incubation with the enzyme,human cathepsin G,not significantly reduced
